target: T1, M4 receptor (Homo sapiens, UniProt P08173); test: Calcium flux (FLIPR) potentiation assay in cells stably expressing M4 receptor; assay type: cell-based; conditions: not given
T1 construct: expressed in transfected cells
T1 sequence (P08173 1-479): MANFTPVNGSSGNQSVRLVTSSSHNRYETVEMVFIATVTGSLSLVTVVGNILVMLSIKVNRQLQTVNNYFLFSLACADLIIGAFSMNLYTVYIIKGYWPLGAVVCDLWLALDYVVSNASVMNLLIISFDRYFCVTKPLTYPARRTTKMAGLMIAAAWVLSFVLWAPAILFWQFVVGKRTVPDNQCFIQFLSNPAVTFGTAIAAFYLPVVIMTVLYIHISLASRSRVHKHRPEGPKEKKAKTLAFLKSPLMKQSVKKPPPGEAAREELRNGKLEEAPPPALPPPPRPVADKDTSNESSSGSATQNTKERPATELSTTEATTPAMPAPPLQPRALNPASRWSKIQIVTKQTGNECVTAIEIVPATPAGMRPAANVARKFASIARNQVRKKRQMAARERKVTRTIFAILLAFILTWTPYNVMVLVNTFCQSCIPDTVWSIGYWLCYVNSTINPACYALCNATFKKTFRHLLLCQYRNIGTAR
Text: Test example 1. Determination of the effect of the compounds of the present invention on calcium current in cells stably expressing M1-M5 receptors
To detect the potentiating effect of compounds on calcium flux activity in CHO-K1/human M1/3/5 and CHO-K1/Gα15 M2/4 cells.
384-well assay plate, 384-well plate, FLIPR Tip, FLIPR Penta plate reader, Dispendix non-contact nanoliter dispensing system (liquid handling workstation), liquid handler.
Ham's F-12 Nutrient Mix, foetal bovine serum, P/S (Gibco: 15140122), HBSS (Gibco: 14025076), HEPES (Gibco: 15630080), FLIPR calcium 6 assay kit (Molecular Devices: R8190), Probenecid (PBA) (Invitrogen: P36400), Acetylcholine chloride (Sigma: A6625-25G) Complete culture medium: DMEM + 10% FBS + 1X P/S; Cell seeding medium: DMEM + 10% FBS + 1X PS; Assay buffer 1: 1X HBSS + 20 mM HEPES +2.5 mM Probenecid; Assay buffer 2: 1X HBSS + 20 mM HEPES; Cell line: CHO-K1/M1; CHO-K1/M2/Gα15; CHO-K1/M3; CHO-K1/M4/Gα15; CHO-K1/M5.
FLIPR calcium 6 assay kit: Component A was dissolved in Assay buffer 1, and the mixture was shaken for 1-2 min, sub-packaged and stored at -20°C.
• 1) CHO-K1/M1; CHO-K1/M2/Gα15; CHO-K1/M3; CHO-K1/M4/Gα15; and CHO-K1/M5 cell lines were cultured separately in complete culture medium at 37°C, 5% CO2 to 70%-90% confluency. • 2) The cells were digested and resuspended in cell seeding medium, 5,000 cells/well/20 µL were seeded into a 384-well cell culture plate, and the cells were cultured at 37°C, 5% CO2 for 24 hours. • 3) The cell culture plate was taken out of the CO2 incubator and equilibrated at room temperature for 10 minutes. • 4) Component A solution was removed and allowed to equilibrate to room temperature. 20 µL of Component A solution was added to each well of the cell culture plate, and incubated at room temperature in the dark for 1 hour. • 5) Acetylcholine chloride (ACh), a muscarinic receptor agonist, was prepared in Assay buffer 2 at EC20/EC100 concentrations; subsequently, 30 µL of the prepared muscarinic receptor agonist was added to a 384-well agonist plate (PE: 6008590) using a Multidrop Combi; the working solutions of the positive control compound and the test compound were serially diluted at a 3.16-fold gradient and dispensed (450 nL) into a 384-well compound plate (PE: 6008590) using the Dispendix liquid handling workstation; 30 µL of Assay buffer 2 was added to the 384-well compound plate (PE: 6008590) using the Multidrop Combi; the positive control compound and the test compound were diluted to 6X, mixed by shaking, and placed at room temperature until use. • 6) 10 µL of the diluted 6X compound was added to the assay wells of the corresponding 384-well cell plate using the FLIPR Penta, followed by a 2-minute incubation. • 7) 10 µL of the prepared muscarinic receptor agonist was added to the assay wells of the corresponding 384-well cell plate using the FLIPR Penta, with simultaneous data acquisition.
FLIPR Penta was used to read and collect the fluorescence signal value (RFU). The maximum RFU value was used to calculate the percent activation data based on the readings of the Low control (DMSO control group) and High control (ACh EC100) experimental groups {% activation rate = (RFUsample - RFUlow control) / (RFUhigh control - RFUlow control)×100}. The test compound was diluted 3.16X in the reaction system to generate 11 concentration points ranging from 30 µM to […].

Compared with Cc1cn2nc(N3CC(CC(=O)N4Cc5c(C)c(C)n6ncnc6c5C4)C3)ccc2n1 [Example 55], Cc1c2c(c3ncnn3c1C)CN(C(=O)OC1CN(c3cc(Cl)ncc3Cl)C1)C2 [Example 187] is 1.6-fold higher in EC50: 18.1 nM for the first, 28.2 nM for the second. The first is the more potent here.

Cc1c2c(c3nccn3c1C)CN(C(=O)CC1CC1c1ccc(F)nc1)C2 (stereo not drawn) [Example 104] gave an EC50 of 53.8 nM.

same assay, conditions: CHO-K1/M4/Gα15 cells; potentiation of acetylcholine (EC20) calcium flux; read-out: M4 FLIPR EC50

First: Cc1c2c(c3ncnn3c1C)CN(C(=O)CC1CN(c3ccnc(C(F)(F)F)c3)C1)C2 [Example 20, 1-(5,6-Dimethyl-7,9-dihydro-8H-pyrrolo[3,4-c][1,2,4]triazolo[1,5-a]pyridin-8-yl)-2-(1-(2-(trifluoromethyl)pyridin-4-yl)azetidin-3-yl)ethan-1-one]
Second: Cc1c2c(c3ncnn3c1C)CN(C(=O)CC1CN(c3ccnc(OCC(F)(F)F)c3)C1)C2 [Example 186]
The EC50 of the first is 2-fold lower: 14.7 nM for the first, 28.8 nM for the second.

First: Cc1c2c(c3ncnn3c1C)CN(C(=O)CC1CN(c3ccc(S(=O)(=O)C(F)F)cc3)C1)C2 [Example 25]
Second: CN=S(C)(=O)c1ccc(N2CC(CC(=O)N3Cc4c(C)c(C)n5ncnc5c4C3)C2)cc1 (stereo not drawn) [Example 38]
The EC50 of the first is 4-fold lower: 9.5 nM for the first, 37.9 nM for the second. The first is the more potent here.

Going from Cc1c2c(c3ncnn3c1C)CN(C(=O)c1ccc(F)c(Cl)c1)C2 [Example 29] to Cc1c2c(c3ncnn3c1C)CN(C(=O)C[C@@H]1C[C@H]1c1ccc(F)nc1)C2 [Example 103, 1-(5,6-Dimethyl-7,9-dihydro-8H-pyrrolo[3,4-c][1,2,4]triazolo[1,5-a]pyridin-8-yl)-2-((1S,2R)-2-(6-fluoropyridin-3-yl)cyclopropyl)ethan-1-one], the EC50 falls from 37 nM to 24.4 nM (1.5-fold). The second is the more potent here.

Cc1c2c(c3ncnn3c1C)CN(C(=O)C1CCN(c3ccncn3)C1)C2 (stereo not drawn) [Example 34] and Cc1nc2c3c(c(C)c(C)n2n1)CN(C(=O)C1CCN(c2ccncn2)C1)C3 (stereo not drawn) [Example 140] are within 1.5-fold of each other in EC50: 40.4 nM for the first, 51.7 nM for the second.

CCNc1nccc(N2CC(CC(=O)N3Cc4c(C)c(C)n5ncnc5c4C3)C2)n1 [Example 53] and Cc1c2c(c3ncnn3c1C)CN(C(=O)CC1CN(c3cc(NC(C)C)ncn3)C1)C2 [Example 54] are within 1.5-fold of each other in EC50: 8 nM for the first, 9.6 nM for the second.

Compared with Cc1nc2c3c(c(C)c(C)n2n1)CN(C(=O)CC1CN(c2ccnc(C(F)(F)F)c2)C1)C3 [Example 57], Cc1c2c(c3nc(N)nn3c1C)CN(C(=O)CC1CN(c3ccnc(C(F)(F)F)c3)C1)C2 [Example 145] is 1.5-fold higher in EC50: 18 nM for the first, 27.4 nM for the second. The first is the more potent here.

First: Cc1c2c(c3nccn3c1C)CN(C(=O)CC1CN(c3ccnc(C(F)(F)F)c3)C1)C2 [Example 60, 1-(5,6-Dimethyl-7,9-dihydro-8H-imidazo[1,2-a]pyrrolo[3,4-c]pyridin-8-yl)-2-(1-(2-(trifluoromethyl)pyridin-4-yl)azetidin-3-yl)ethan-1-one]
Second: Cc1c2c(c3nccn3c1C)CN(C(=O)OC1CN(c3ccnc(C(F)(F)F)c3)C1)C2 [Example 71]
The EC50 of the first is 8.2-fold lower: 8.8 nM for the first, 71.9 nM for the second.

Cc1c2c(c3ncnn3c1C)CN(C(=O)CC1CN(c3ccnc(S(=O)(=O)N(C)C)c3)C1)C2 [Example 61] and Cc1c2c(c3ncnn3c1C)CN(C(=O)CC1CN(c3ccnc(OCC(F)F)c3)C1)C2 [Example 185] are within 1.5-fold of each other in EC50: 10.6 nM for the first, 11.1 nM for the second.

Compared with Cc1c2c(c3nccn3c1C)CN(C(=O)CC1CN(c3ccnc(OC(F)F)c3)C1)C2 [Example 70], Cc1c2c(c3nccn3c1C)CN(C(=O)CC1CN(c3ccnc(C(F)F)c3)C1)C2 [Example 101] is 2.2-fold lower in EC50: 73.6 nM for the first, 33.5 nM for the second. The second is the more potent here.

Compared with Cc1c2c(c3nccn3c1C)CN(C(=O)OC1CN(c3ccnc(OC(F)F)c3)C1)C2 [Example 72], Cc1c2c(c3nnnn3c1C)CN(C(=O)OC1CN(c3ccnc(OC(F)F)c3)C1)C2 [Example 179] is 1.5-fold lower in EC50: 87.5 nM for the first, 57.1 nM for the second. The second is the more potent here.

Cc1c2c(c3ncnn3c1C)CN(C(=O)CC1CN(c3ccnc(C4CCCCO4)c3)C1)C2 (stereo not drawn) [Example 100] and Cc1c2c(c3ncnn3c1C)CN(C(=O)CC1CN(c3cc(Cl)ncc3Cl)C1)C2 [Example 146] are within 1.5-fold of each other in EC50: 18.4 nM for the first, 12.4 nM for the second.

Going from Cc1cn2nc(N3CC(CC(=O)N4Cc5c(C)c(C)n6nc(C)nc6c5C4)C3)ccc2n1 [Example 127] to Cc1cn2nc(N3CC(CC(=O)N4Cc5c(C)c(C)n6nccc6c5C4)C3)ccc2n1 [Example 201], the EC50 rises from 15.2 nM to 56.4 nM (3.7-fold).

Cc1c2c(c3nc(C4CC4)nn3c1C)CN(C(=O)CC1CN(c3ccnc(C(F)(F)F)c3)C1)C2 [Example 143] and Cc1c2c(c3nnnn3c1C)CN(C(=O)CC1CN(c3ccnc(C(F)(F)F)c3)C1)C2 [Example 148] are within 1.5-fold of each other in EC50: 30.9 nM for the first, 37.7 nM for the second.

Cc1cn2cc(N3CC(OC(=O)N4Cc5c(C)c(C)n6ncnc6c5C4)C3)ccc2n1 [Example 178] and Cc1c2c(c3ncnn3c1C)CN(C(=O)OC1CN(c3ccc4nc(CF)cn4n3)C1)C2 [Example 190] are within 1.5-fold of each other in EC50: 83.8 nM for the first, 73.2 nM for the second.

Compared with Cc1c2c(c3ncnn3c1C)CN(C(=O)OC1CN(c3cc(C(F)(F)F)ncc3Cl)C1)C2 [Example 180], Cc1c2c(c3ncnn3c1C)CN(C(=O)OC1CN(c3cc(C(F)F)ncc3Cl)C1)C2 [Example 184] is 1.6-fold lower in EC50: 69.5 nM for the first, 44.1 nM for the second.

Going from Cc1c2c(c3nc(N)nn3c1C)CN(C(=O)CC1CN(c3ccnc(OC(F)F)c3)C1)C2 [Example 181] to Cc1cn2nc(N3CC(OC(=O)N4Cc5c(C)c(C)n6nccc6c5C4)C3)ccc2n1 [Example 200], the EC50 rises from 25.9 nM to 39.4 nM (1.5-fold).

test system: not listed separately; test: Pharmacokinetic determination in SD rats; conditions: rat, in vivo, po; male SD rats, p.o. 5 mg/kg
Procedure: To investigate the pharmacokinetic behaviours of the example compounds in both plasma and brain of SD rats (test animals) following oral administration at a dose of 5 mg/kg.
2.1 Test drugs: The example compounds of the present invention, made in house.
2.2 Test animals: SD Rat, male.
24 SD Rats, male; p.o. respectively at a dose of 5 mg/kg and an administration volume of 10 mL/kg after the rats were fasted overnight.
Formulation of a drug for oral administration: 0.5% CMC-Na (1% Tween 80).
0.50 g of sodium carboxymethyl cellulose (CMC-Na, viscosity: 800-1200 Cps) was weighed and dissolved in 99 mL of purified water, and 1 ml of Tween 80 was added. The components were mixed thoroughly under stirring to form a clear solution.
The example compound was weighed into a 100 mL glass vial, 80 mL of the solution was added, and the mixture was subjected to ultrasound treatment for 10 minutes to obtain a homogeneous suspension with a concentration of 0.5 mg/mL.
After the test animals were euthanised by CO2, blood samples were collected from the heart and brain tissues were harvested at 0.25 h, 0.5 h, 1 h, 2 h, 4 h, 6 h, 8 h, and 24 h post-dose. Blood was placed in EDTA-2K tubes, and centrifuged at 6000 rpm for 6 min at 4°C to separate the plasma. Brain tissues were rinsed with pre-cold PBS, blotted dry, and weighed. Both plasma and brain samples were stored at -80°C. The animals were fed 4 h after administration.
• 3) 40 uL of plasma sample was precipitated with 160 uL of acetonitrile, mixed, and centrifuged at 3500 × g for 5-20 min. Brain tissues were diluted, homogenised and centrifuged. • 4) 100 uL of the treated supernatant solution was taken for LC/MS/MS analysis to determine the concentration of the test compounds.
• Liquid phase conditions: Shimadzu LC-20AD pump • Mass spectrometry conditions: AB Sciex API 4000 mass spectrometer • Chromatographic column: Phenomenex Gemiu 5 um C18 50 × 4.6 mm • Mobile phase: solution A: 0.1% formic acid in water, solution B: acetonitrile • Flow rate: 0.8 mL/min • Elution time: 0-4.0 min, with eluents as follows:
The main pharmacokinetic parameters were calculated using WinNonlin 8.1.

For Cc1c2c(c3ccnn3c1C)CN(C(=O)OC1CN(c3ccnc(C(F)F)c3)C1)C2 [Example 142], the AUC(0-inf) was 9320 ng·h/mL.

With Cc1c2c(c3ccnn3c1C)CN(C(=O)OC1CN(c3ccnc(C(F)F)c3)C1)C2 [Example 142] the Cmax was 1380 ng/mL.

Cc1c2c(c3ccnn3c1C)CN(C(=O)OC1CN(c3ccnc(C(F)F)c3)C1)C2 [Example 142] showed a Tmax of 2 h.

same assay, conditions: rat, in vivo, po; male SD rats, p.o. 5 mg/kg; read-out: MRT 0-∞

Compound Cc1c2c(c3ccnn3c1C)CN(C(=O)OC1CN(c3ccnc(C(F)F)c3)C1)C2 [Example 142] has an MRT inf of 4.4 h.

Source: patent EP4810493A1, “HETEROCYCLIC CARBONYL DERIVATIVE MODULATOR, PREPARATION METHOD THEREFOR, AND USE THEREOF” (Shanghai Hansoh Biomedical Co., Ltd., priority 2023, dated 2025)
